BindingDB's records for doi:10.1021/cb4007562 (University of Konstanz, 2014)

Experiments:
DNA polymerase lambda = target: T1, DNA polymerase lambda (Homo sapiens, UniProt Q9UGP5); assay: DNA Pol λ PEX Assay; conditions: pH 7.5
T1 sequence (Q9UGP5 whole entry): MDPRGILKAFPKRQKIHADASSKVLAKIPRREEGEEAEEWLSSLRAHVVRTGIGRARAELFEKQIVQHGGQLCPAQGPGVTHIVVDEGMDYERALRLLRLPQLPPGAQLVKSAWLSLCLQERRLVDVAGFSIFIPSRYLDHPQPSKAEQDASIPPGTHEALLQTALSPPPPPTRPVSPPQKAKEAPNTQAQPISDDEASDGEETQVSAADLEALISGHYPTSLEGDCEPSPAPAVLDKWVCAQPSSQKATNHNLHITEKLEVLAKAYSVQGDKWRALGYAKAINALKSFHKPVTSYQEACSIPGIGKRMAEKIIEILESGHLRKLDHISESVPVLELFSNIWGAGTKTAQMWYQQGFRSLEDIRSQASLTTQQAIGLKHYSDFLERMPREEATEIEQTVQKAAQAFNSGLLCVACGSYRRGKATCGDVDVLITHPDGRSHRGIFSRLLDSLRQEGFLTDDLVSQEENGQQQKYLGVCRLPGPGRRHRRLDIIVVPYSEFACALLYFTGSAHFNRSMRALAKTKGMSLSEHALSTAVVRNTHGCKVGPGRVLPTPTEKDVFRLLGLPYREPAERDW
Procedure: Pol λ reactions were made in a final volume of 20uL containing 50mM Tris-HCl pH 7.5, 1.5mM MgCl2, 5% (v/v) glycerol, 1mM DTT, 250nM purified recombinant pol λ, 150nM radioactive-labled primer F20H, 225nM template F33A, 0.1mg/mL BSA, 1uL compound solution with variable concentrations in DMSO (1uL DMSO for the solvent control). 5uL dNTP solution (15uM final) was added to initiate the reactions and positive controls. Reactions and controls were incubated for 30 min at 37 degrees Celsius and subsequently quenched using 45uL PAGE loading solution (80% (v/v) formamide, 20mM EDTA, 0.05% (w/v) bromophenol blue, 0.05% (w/v) xylene cyanol) per well. The reaction mixture was denatured for 5 min at 95 degrees Celsius and analyzed by 12% PAGE containing 8M urea.

DNA polymerase beta = DNA polymerase beta (Homo sapiens, UniProt P06746); assay: DNA Pol β PEX Assay; conditions: pH 7.9
Procedure: Pol β reactions were made in a final volume of 20uL containing 50mM Tris-HCl pH 7.9, 20mM KCl, 5% (v/v) glycerol, 1mM DTT, 2mM MnCl2, 250nM purified recombinant pol β, 150nM radioactive-labeled primer F20H, 225nM template F33A, 0.1mg/mL BSA, 1uL compound solution with various concentrations in DMSO (1uL DMSO for the solvent control). 5uL dNTP (15uM final) was added to initiate the reactions and positive controls. Reactions and controls were incubated for 30 min at 37 degrees Celsius and subsequently quenched using 45uL PAGE loading solution (80% (v/v) formamide, 20mM EDTA, 0.05% (w/v) bromophenol blue, 0.05% (w/v) xylene cyanol) per well. The reaction mixture was denatured for 5 min at 95 degrees Celsius and analyzed by 12% PAGE containing 8M urea.

Row | Structure (SMILES) | IC50 (DNA polymerase lambda) [µM] | IC50 (DNA polymerase beta) [µM]
1 | Cc1ccccc1Sc1ccc(C=C2SC(S)=NC2=O)cc1 [23 (Z)-2-Thioxo-5-(4-(o-tolylthio)benzylidene)thiazolidin-4-one 28] | < 10 | 50
2 | Cc1ccccc1Sc1ccc(C=C2SC(S)=NC2=O)cc1C(F)(F)F [(Z)-2-Thioxo-5-(4-(o-tolylthio)-3-(trifluoromethyl)benzylidene)thiazolidin-4-one 30] | < 10 | < 50
3 | Cc1ccc(Sc2ccc(C=C3SC(S)=NC3=O)cc2C(F)(F)F)cc1 [(Z)-2-Thioxo-5-(4-(p-tolylthio)-3-(trifluoromethyl)benzylidene)thiazolidin-4-one 15] | < 10 | 28.1
4 | Cc1ccc(Sc2ccc(C=C3SC(S)=NC3=O)cc2)cc1 [(Z)-2-Thioxo-5-(4-(p-tolylthio)benzylidene)thiazolidin-4-one 11] | < 10 | < 50
5 | C=C(c1ccc(Sc2ccc(C)cc2)c([N+](=O)[O-])c1)c1sc(S)nc1O [(Z)-5-(1-(3-Nitro-4-(p-tolylthio)phenyl)ethylidene)-2-thioxothiazolidin-4-one 8] | < 10 | < 50
6 | Cc1ccc(Sc2ccc(C=C3SC(S)=NC3=O)c(Sc3ccc(C)cc3)c2)cc1 [(Z)-5-(2,4-Bis(p-tolylthio)benzylidene)-2-thioxothiazolidin-4-one 31] | 4 | < 50
7 | Cc1ccc(Sc2ccc(C=C3SC(S)=NC3=O)cc2Br)cc1F [(Z)-5-(3-Bromo-4-((3-fluoro-4-methylphenyl)thio)benzylidene)-2-thioxothiazolidin-4-one 27] | 4 | > 50
8 | Cc1ccc(Sc2ccc(C=C3SC(S)=NC3=O)cc2Br)cc1 [(Z)-5-(3-Bromo-4-(p-tolylthio)benzylidene)-2-thioxothiazolidin-4-one 14] | < 10 | > 50
9 | Cc1ccc(Sc2ccc(C=C3SC(S)=NC3=O)cc2Cl)cc1 [(Z)-5-(3-Chloro-4-(p-tolylthio)benzylidene)-2-thioxothiazolidin-4-one 13] | 5.7 | > 50
10 | Cc1ccccc1Sc1ccc(C=C2SC(S)=NC2=O)cc1F [(Z)-5-(3-Fluoro-4-(o-tolylthio)benzylidene)-2-thioxothiazolidin-4-one 29] | < 10 | 50
11 | Cc1ccc(Sc2ccc(C=C3SC(S)=NC3=O)cc2F)cc1 [(Z)-5-(3-Fluoro-4-(p-tolylthio)benzylidene)-2-thioxothiazolidin-4-one 12] | < 10 | 38.7
12 | O=C1N=C(S)SC1=Cc1ccc(Sc2c(F)c(F)c(C(F)(F)F)c(F)c2F)c([N+](=O)[O-])c1 [(Z)-5-(3-Nitro-4-((2,3,5,6-tetrafluoro-4-(trifluoromethyl)phenyl)thio)benzylidene)-2-thioxothiazolidin-4-one 21] | < 10 | > 50
13 | O=C1N=C(S)SC1=Cc1ccc(Sc2ccc(OC(F)(F)F)cc2)c([N+](=O)[O-])c1 [(Z)-5-(3-Nitro-4-((4-(trifluoromethoxy)phenyl)thio)benzylidene)-2-thioxothiazolidin-4-one 19] | < 20 | > 50
14 | O=C1N=C(S)SC1=Cc1ccc(Sc2ccc(C(F)(F)F)cc2)c([N+](=O)[O-])c1 [(Z)-5-(3-Nitro-4-((4-(trifluoromethyl)phenyl)thio)benzylidene)-2-thioxothiazolidin-4-one 18] | < 10 | > 50
15 | Cc1cccc(Sc2ccc(C=C3SC(S)=NC3=O)cc2[N+](=O)[O-])c1 [(Z)-5-(3-Nitro-4-(m-tolylthio)benzylidene)-2-thioxothiazolidin-4-one 22] | 6 | 29.8
16 | Cc1ccccc1Sc1ccc(C=C2SC(S)=NC2=O)cc1[N+](=O)[O-] [(Z)-5-(3-Nitro-4-(o-tolylthio)benzylidene)-2-thioxothiazolidin-4-one 23] | 3.9 | 18.2
17 | Cc1ccc(Sc2ccc(C=C3SC(O)=NC3=O)cc2[N+](=O)[O-])cc1 [(Z)-5-(3-Nitro-4-(p-tolylthio)benzylidene)thiazolidine-2,4-dione 3] | < 10 | > 50
18 | Cc1ccc(S(=O)(=O)c2ccc(C=C3SC(S)=NC3=O)cc2[N+](=O)[O-])cc1 [(Z)-5-(3-Nitro-4-tosylbenzylidene)-2-thioxothiazolidin-4-one 10] | < 20 | –
19 | Cc1ccc(Sc2ccc(C=C3SC(S)=NC3=O)cc2[N+](=O)[O-])cc1F [(Z)-5-(4-((3-Fluoro-4-methylphenyl)thio)-3-nitrobenzylidene)-2-thioxothiazolidin-4-one 20] | < 10 | > 50
20 | CCc1ccc(Sc2ccc(C=C3SC(S)=NC3=O)cc2[N+](=O)[O-])cc1 [(Z)-5-(4-((4-Ethylphenyl)thio)-3-nitrobenzylidene)-2-thioxothiazolidin-4-one 17] | < 10 | < 50
21 | O=C1N=C(S)SC1=Cc1ccc(SC2CCCCC2)c([N+](=O)[O-])c1 [(Z)-5-(4-(Cyclohexylthio)-3-nitrobenzylidene)-2-thioxothiazolidin-4-one 2] | < 10 | < 50
22 | O=C1N=C(S)SC1=Cc1ccc(SC2CCCC2)c([N+](=O)[O-])c1 [(Z)-5-(4-(Cyclopentylthio)-3-nitrobenzylidene)-2-thioxothiazolidin-4-one 26] | < 20 | > 50
23 | O=C1N=C(S)SC1=Cc1ccc(Sc2ccc3ccccc3c2)c([N+](=O)[O-])c1 [(Z)-5-(4-(Naphthalen-2-ylthio)-3-nitrobenzylidene)-2-thioxothiazolidin-4-one 25] | < 10 | > 50
24 | Cc1ccc(Sc2sc(C=C3SC(S)=NC3=O)cc2Br)cc1 [(Z)-5-((4-Bromo-5-(p-tolylthio)thiophen-2-yl)methylene)-2-thioxothiazolidin-4-one 32] | < 10 | < 50
25 | Cc1ccc(Sc2ccc(C=C3SC(S)=NC3=O)cc2C#N)cc1 [(Z)-5-((4-Oxo-2-thioxothiazolidin-5-ylidene)methyl)-2-(ptolylthio) benzonitrile 16] | < 10 | –
26 | Cc1ccc(Sc2ccc(C=C3SC(S)=NC3=O)cc2[N+](=O)[O-])cc1 [DNA polymerase inhibitor 1] | 5.9 | 64.4
